Test results reported in patent US8846947B2, “Benzimidazoles and related analogs as sirtuin modulators” (GlaxoSmithKline LLC, priority 2008, dated 2014).
Read-outs that look alike come from different tables or passages of the source.

Biological target: T1, SIRT1 (Homo sapiens, UniProt Q96EB6)
T1 sequence (Q96EB6 1-747): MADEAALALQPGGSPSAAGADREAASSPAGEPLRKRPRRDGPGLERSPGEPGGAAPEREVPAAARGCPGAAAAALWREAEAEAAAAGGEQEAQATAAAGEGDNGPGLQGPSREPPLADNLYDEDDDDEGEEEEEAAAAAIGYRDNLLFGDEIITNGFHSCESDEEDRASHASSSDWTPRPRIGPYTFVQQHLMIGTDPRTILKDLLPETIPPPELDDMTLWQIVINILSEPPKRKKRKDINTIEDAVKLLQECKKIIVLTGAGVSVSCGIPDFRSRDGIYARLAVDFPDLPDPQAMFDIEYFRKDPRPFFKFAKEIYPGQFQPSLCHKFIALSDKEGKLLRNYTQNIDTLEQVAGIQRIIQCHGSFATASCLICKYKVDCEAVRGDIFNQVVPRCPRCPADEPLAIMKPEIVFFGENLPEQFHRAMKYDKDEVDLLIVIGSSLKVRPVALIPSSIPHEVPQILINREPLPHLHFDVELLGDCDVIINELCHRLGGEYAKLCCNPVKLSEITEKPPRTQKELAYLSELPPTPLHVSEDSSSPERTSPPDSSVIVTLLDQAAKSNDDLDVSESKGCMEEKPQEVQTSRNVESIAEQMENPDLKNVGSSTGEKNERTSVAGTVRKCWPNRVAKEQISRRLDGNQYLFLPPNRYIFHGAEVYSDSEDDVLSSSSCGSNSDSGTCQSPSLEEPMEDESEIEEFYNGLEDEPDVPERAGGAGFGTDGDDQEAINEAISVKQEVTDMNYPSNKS
Assay: Mass spectrometry based SIRT1 deacetylase activation assay (acetylated p53-derived peptide substrate)
Format: biochemical

[1] = 0.5 μM peptide substrate, 120 μM βNAD+, 10 nM SIRT1, 25 minutes at 25° C.

EC1.5 [1] | Fold Act. (percent maximum fold activation) [1] | EC1.5 | Fold Act. (percent maximum fold activation) | Structure (SMILES)
A (EC1.5<1.0 uM) | A (Fold activation >200%) |  |  | O=C(Nc1cccc(OC2CCNCC2)c1)c1cccc2[nH]c(-c3ccc(F)cc3C(F)(F)F)nc12 [Compound 661]
 |  | B (EC1.5 1-25 uM) | A (Fold activation >200%) | O=C(Nc1nccs1)c1cccc2[nH]c(-c3ccccc3N3CCCC3)nc12 [Compound 280]
A (EC1.5<1.0 uM) | A (Fold activation >200%) |  |  | O=C(Nc1ccc(OC[C@@H](O)CO)cc1)c1cccc2[nH]c(-c3cccnc3)nc12 [Compound 753]
 |  | B (EC1.5 1-25 uM) | A (Fold activation >200%) | O=C(Nc1nccs1)c1cccc2[nH]c(-c3ccnc(N4CCNCC4)c3)nc12 [Compound 314]
A (EC1.5<1.0 uM) | A (Fold activation >200%) |  |  | Cc1cnc(NC(=O)c2cccc3[nH]c(-c4sc(N5CCOCC5)nc4C)nc23)s1 [Compound 601]
